Like-named read-outs stand apart in the source and are kept apart here.

We go through 18 compounds from patent US11512090B2, “Muscarinic acetylcholine M1 receptor antagonists” (PIPELINE THERAPEUTICS, INC., priority 2018, dated 2022).

Holding throughout (type): cell-based
One experiment concerns the target T1, human M1 receptor (Homo sapiens, UniProt P11229).
T1 sequence (P11229 1-460): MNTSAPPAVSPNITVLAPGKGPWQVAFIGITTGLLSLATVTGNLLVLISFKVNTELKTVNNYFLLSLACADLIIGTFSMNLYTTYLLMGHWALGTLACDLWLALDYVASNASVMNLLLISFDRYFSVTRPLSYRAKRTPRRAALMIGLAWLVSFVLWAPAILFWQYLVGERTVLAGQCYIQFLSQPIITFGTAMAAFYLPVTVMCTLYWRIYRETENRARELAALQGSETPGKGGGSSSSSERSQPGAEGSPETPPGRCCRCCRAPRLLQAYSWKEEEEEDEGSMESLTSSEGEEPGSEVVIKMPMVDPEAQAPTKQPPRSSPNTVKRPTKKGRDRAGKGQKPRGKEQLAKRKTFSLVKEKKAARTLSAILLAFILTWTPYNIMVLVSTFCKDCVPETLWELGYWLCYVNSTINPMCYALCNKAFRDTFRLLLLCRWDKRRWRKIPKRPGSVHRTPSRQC
The experiment is described as follows: In vitro functional assay of muscarinic acetylcholine receptor activity (aequorin calcium flux, antagonist mode vs EC80 acetylcholine), M1. A digest of the protocol: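 CHO-K1 cells stably co-expressing human M1 and aequorin were loaded with 5 uM coelenterazine h for 4 h at room temperature in the dark. IC50 came from the drop in luminescence.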

The next experiment has as its target T2, M2 (Homo sapiens, UniProt P08172).
T2 sequence (P08172 1-466): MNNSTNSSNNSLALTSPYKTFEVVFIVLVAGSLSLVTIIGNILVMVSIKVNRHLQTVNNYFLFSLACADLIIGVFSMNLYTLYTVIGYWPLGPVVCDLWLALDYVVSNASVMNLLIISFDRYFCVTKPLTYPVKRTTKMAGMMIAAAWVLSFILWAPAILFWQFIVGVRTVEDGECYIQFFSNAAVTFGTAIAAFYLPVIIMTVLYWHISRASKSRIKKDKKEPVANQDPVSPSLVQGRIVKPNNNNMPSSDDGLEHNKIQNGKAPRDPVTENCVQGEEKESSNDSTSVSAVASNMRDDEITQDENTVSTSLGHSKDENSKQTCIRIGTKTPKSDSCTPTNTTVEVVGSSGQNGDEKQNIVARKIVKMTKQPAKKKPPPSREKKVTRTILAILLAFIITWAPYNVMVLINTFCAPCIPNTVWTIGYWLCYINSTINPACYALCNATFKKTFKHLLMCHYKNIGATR
The experiment is described as follows: In vitro functional assay of muscarinic acetylcholine receptor activity, M2.

The next experiment has as its target M3 (Homo sapiens, UniProt P20309). The experiment can be described thus: In vitro functional assay of muscarinic acetylcholine receptor activity, M3.
The mark [1] stands for this setting: antagonist IC50 at M2, read-out: M2 IC50.
[2] abbreviates: CHO-K1 cells stably expressing human M1 receptor with Aequorin, decrease in EC80 acetylcholine response, read-out: M1 IC50.
The mark [3] stands for this setting: antagonist IC50 at M3, read-out: M3 IC50.

Sequence of M3 (P20309 whole entry): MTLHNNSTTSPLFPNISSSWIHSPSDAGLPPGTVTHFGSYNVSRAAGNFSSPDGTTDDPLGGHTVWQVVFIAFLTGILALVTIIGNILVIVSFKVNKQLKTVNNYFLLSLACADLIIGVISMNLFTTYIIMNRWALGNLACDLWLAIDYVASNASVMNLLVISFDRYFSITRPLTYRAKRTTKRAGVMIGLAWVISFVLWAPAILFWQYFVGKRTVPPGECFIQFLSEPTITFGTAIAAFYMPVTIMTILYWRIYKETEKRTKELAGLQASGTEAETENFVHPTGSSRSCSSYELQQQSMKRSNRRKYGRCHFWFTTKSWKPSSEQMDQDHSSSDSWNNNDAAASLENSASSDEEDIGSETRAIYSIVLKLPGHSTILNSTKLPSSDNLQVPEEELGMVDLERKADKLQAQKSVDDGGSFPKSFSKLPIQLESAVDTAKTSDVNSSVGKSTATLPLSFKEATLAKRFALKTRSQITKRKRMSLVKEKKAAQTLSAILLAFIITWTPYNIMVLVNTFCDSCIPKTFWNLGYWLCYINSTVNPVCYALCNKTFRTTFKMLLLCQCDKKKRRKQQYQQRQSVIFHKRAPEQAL

A word on the IC50: it is the midpoint of a concentration-inhibition curve. As for `N#Cc1ccc(N2C3COCC2CN(C(=O)CCCc2cccc4ncccc24)C3)nc1` [Example 154, 6-{7-[4-(quinolin-5-yl)butanoyl]-3-oxa-7,9-diazabicyclo[3.3.1]nonan-9-yl}pyridine-3-carbonitrile], the concentration for half-maximal inhibition (IC50) on human M1 receptor was less than 0.1 µM; on M2 (setting [1]) it was 1 to 10 µM; at M3 it was 0.1 to 1 µM.
For `N#Cc1ccc(N2C3CCC2CN(C(=O)CCNCc2cccc4ncccc24)C3)nc1` [Example 155, 6-[3-(3-{[(quinolin-5-yl)methyl]amino}propanoyl)-3,8-diazabicyclo[3.2.1]octan-8-yl]pyridine-3-carbonitrile], the results for the IC50 at human M1 receptor (setting [2]), on M2 (setting [1]) and on M3 (setting [3]) were 1 to 10 µM, more than 10 µM and more than 10 µM, respectively.
Turning to `O=C(CCNCc1cccc2ncnn12)N1CC2CCC(C1)N2c1ccc(Br)cn1` [Example 156, 1-[8-(5-bromopyridin-2-yl)-3,8-diazabicyclo[3.2.1]octan-3-yl]-3-[({[1,2,4]triazolo[1,5-a]pyridin-5-yl}methyl)amino]propan-1-one], the values for the IC50 at human M1 receptor, at M2 (setting [1]) and on M3 (setting [3]) were 0.1 to 1 µM, 1 to 10 µM and 1 to 10 µM, respectively.
Take `O=C(CCNCc1cccc2ncnn12)N1CC2CCC(C1)N2c1ccc(Cl)cn1` [Example 157, 1-[8-(5-chloropyridin-2-yl)-3,8-diazabicyclo[3.2.1]octan-3-yl]-3-[({[1,2,4]triazolo[1,5-a]pyridin-5-yl}methyl)amino]propan-1-one]: the concentration for half-maximal inhibition (IC50) was less than 0.1 µM on human M1 receptor, more than 10 µM on M2 (setting [1]) and more than 10 µM at M3 (setting [3]).
For `N#Cc1ccc(N2C3CCC2CN(C(=O)C(F)(F)CNCc2cccc4ncsc24)C3)nc1` [Example 158, 6-[3-(3-{[(1,3-benzothiazol-7-yl)methyl]amino}-2,2-difluoropropanoyl)-3,8-diazabicyclo[3.2.1]octan-8-yl]pyridine-3-carbonitrile], the half-maximal inhibitory concentration (IC50) on human M1 receptor is 0.1 to 1 µM; against M2, 0.1 to 1 µM; on M3 (setting [3]), 1 to 10 µM.
As for `N#Cc1cc(N2C3CCC2CN(C(=O)CCNCc2cccc4ncsc24)C3)ccn1` [Example 159, 4-[3-(3-{[(1,3-benzothiazol-7-yl)methyl]amino}propanoyl)-3,8-diazabicyclo[3.2.1]octan-8-yl]pyridine-2-carbonitrile], the IC50 was less than 0.1 µM at human M1 receptor, 1 to 10 µM on M2 (setting [1]) and more than 10 µM at M3 (setting [3]).
The corresponding values for `N#Cc1ccc(N2CC3CCC(C2)N3C(=O)CCNCc2cccc3ncsc23)nc1` [Example 160, 6-[8-(3-{[(1,3-benzothiazol-7-yl)methyl]amino}propanoyl)-3,8-diazabicyclo[3.2.1]octan-3-yl]pyridine-3-carbonitrile] are 0.1 to 1 µM, 1 to 10 µM and more than 10 µM.
The corresponding values for `Cc1cc(C#N)cnc1N1CC2CCC(C1)N2C(=O)CCNCc1cccc2ncsc12` [Example 161, 6-[8-(3-{[(1,3-benzothiazol-7-yl)methyl]amino}propanoyl)-3,8-diazabicyclo[3.2.1]octan-3-yl]-5-methylpyridine-3-carbonitrile] are 0.1 to 1 µM, 1 to 10 µM and more than 10 µM.
For `N#Cc1ccc(N2CC3CCC2CN3C(=O)CCNCc2cccc3ncsc23)nc1` (stereo not drawn) [Example 162, 6-[5-(3-{[(1,3-benzothiazol-7-yl)methyl]amino}propanoyl)-2,5-diazabicyclo[2.2.2]octan-2-yl]pyridine-3-carbonitrile], the half-maximal inhibitory concentration (IC50) lay within 0.1 to 1 µM at human M1 receptor (setting [2]), 1 to 10 µM at M2 (setting [1]) and 1 to 10 µM on M3 (setting [3]).
Turning to `O=C(CCNCc1cccn2nccc12)N1CC2CCC(C1)N2c1ccc(Cl)cn1` [Example 163, 1-[8-(5-chloropyridin-2-yl)-3,8-diazabicyclo[3.2.1]octan-3-yl]-3-[({pyrazolo[1,5-a]pyridin-4-yl}methyl)amino]propan-1-one], the 50% inhibitory concentration (IC50) was 0.1 to 1 µM on human M1 receptor, 1 to 10 µM at M2 (setting [1]) and more than 10 µM at M3 (setting [3]).
With `N#Cc1ccc(N2C3CCC2CN(C(=O)CCN(Cc2cccc4ncnn24)C2CC2)C3)nc1` [Example 164, 6-(3-{3-[cyclopropyl({[1,2,4]triazolo[1,5-a]pyridin-5-yl}methyl)amino]propanoyl}-3,8-diazabicyclo[3.2.1]octan-8-yl)pyridine-3-carbonitrile], the values for the IC50 on human M1 receptor, at M2 (setting [1]) and on M3 (setting [3]) were less than 0.1 µM, 1 to 10 µM and 1 to 10 µM, respectively.
Regarding `N#Cc1ccc(N2C3CCC2CN(C(=O)CCNCc2cccn4nccc24)C3)nc1` [Example 165, 6-(3-{3-[({pyrazolo[1,5-a]pyridin-4-yl}methyl)amino]propanoyl}-3,8-diazabicyclo[3.2.1]octan-8-yl)pyridine-3-carbonitrile], the 50% inhibitory concentration (IC50) lay within 0.1 to 1 µM at human M1 receptor, 1 to 10 µM on M2 (setting [1]) and 1 to 10 µM on M3 (setting [3]).
Turning to `N#Cc1ccc(N2C3CCC2CN(C(=O)CNCCc2cccc4ncsc24)C3)nc1` [Example 166, 6-[3-(2-{[2-(1,3-benzothiazol-7-yl)ethyl]amino}acetyl)-3,8-diazabicyclo[3.2.1]octan-8-yl]pyridine-3-carbonitrile], the 50% inhibitory concentration (IC50) at human M1 receptor lay in the range of 0.1 to 1 µM; at M2 (setting [1]), 1 to 10 µM; on M3 (setting [3]), 1 to 10 µM.
As for `O=C(CCNCc1c(F)ccc2nccn12)N1CC2CCC(C1)N2c1ccc(Cl)cn1` [Example 167, 1-[8-(5-chloropyridin-2-yl)-3,8-diazabicyclo[3.2.1]octan-3-yl]-3-[({6-fluoroimidazo[1,2-a]pyridin-5-yl}methyl)amino]propan-1-one], the half-inhibitory concentration (IC50) at human M1 receptor was less than 0.1 µM; on M2 (setting [1]), 1 to 10 µM; at M3 (setting [3]), more than 10 µM.
For the compound `Cc1nc2cccc(CNCCC(=O)N3CC4CCC(C3)N4c3ccc(C#N)cn3)n2n1` [Example 168, 6-(3-{3-[({2-methyl-[1,2,4]triazolo[1,5-a]pyridin-5-yl}methyl)amino]propanoyl}-3,8-diazabicyclo[3.2.1]octan-8-yl)pyridine-3-carbonitrile], the IC50 on human M1 receptor was 0.1 to 1 µM; on M2 (setting [1]), 1 to 10 µM; on M3 (setting [3]), more than 10 µM.
Regarding `CN(CCC(=O)N1CC2CCC(C1)N2c1ccc(C#N)cn1)Cc1cccc2ncsc12` [Example 169, 6-[3-(3-{[(1,3-benzothiazol-7-yl)methyl](methyl)amino}propanoyl)-3,8-diazabicyclo[3.2.1]octan-8-yl]pyridine-3-carbonitrile], the IC50 on human M1 receptor was 0.1 to 1 µM; against M2 it was 0.1 to 1 µM; at M3 (setting [3]) it was 1 to 10 µM.
For the compound `CN(CCC(=O)N1CC2CCC(C1)N2c1ccc(C#N)cn1)Cc1cccc2ncnn12` [Example 170, 6-(3-{3-[methyl({[1,2,4]triazolo[1,5-a]pyridin-5-yl}methyl)amino]propanoyl}-3,8-diazabicyclo[3.2.1]octan-8-yl)pyridine-3-carbonitrile], the values for the IC50 at human M1 receptor, at M2 (setting [1]) and on M3 (setting [3]) were 0.1 to 1 µM, 1 to 10 µM and 1 to 10 µM, respectively.
Regarding `N#Cc1ccc(N2C3CCC2CN(C(=O)CCNCc2cccc4ncnn24)C3)cc1` [Example 171, 4-(3-{3-[({[1,2,4]triazolo[1,5-a]pyridin-5-yl}methyl)amino]propanoyl}-3,8-diazabicyclo[3.2.1]octan-8-yl)benzonitrile], the IC50 at human M1 receptor is 0.1 to 1 µM; at M2 (setting [1]), more than 10 µM; at M3 (setting [3]), more than 10 µM.
